Test systems include SW-620 colon; HCT-15 colon; SN12C renal; OVCAR-3 ovarian; K-562 leukemia; CAKI-1 renal; A498 renal; BT-549 breast; NCI-H522 lung; UACC-62 melanoma.
What all share (assay): NCI-60 cell line screen, 48 h

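Step 1: Grow cells in 96-well plates. Step 2: Expose to compound for 48 hours at 5 concentrations. Step 3: Interpolate endpoints linearly; if unreached, use highest concentration. GI50 is the concentration that inhibits growth by half. TGI: concentration producing complete growth inhibition.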

For `Cc1noc(C)c1-c1ccc2[nH]c(=O)n3c2c1OC[C@@H]3c1ccccn1`, the GI50 with SW-620 colon is greater than 100 µM; in the experiment on HCT-15 colon it was 0.653 µM; with SN12C renal, 21.4 µM; in the experiment on OVCAR-3 ovarian, 3.84 µM; in the experiment with K-562 leukemia, 0.959 µM; in the experiment on CAKI-1 renal, 0.151 µM. Also, the GI50 in the experiment on BT-549 breast is 15.6 µM; in the experiment with NCI-H522 lung, 2.64 µM; in the experiment with UACC-62 melanoma, 0.302 µM. The TGI in the experiment on SW-620 colon, with HCT-15 colon, in the experiment on SN12C renal, in the experiment on OVCAR-3 ovarian, with K-562 leukemia and with CAKI-1 renal was greater than 100 µM each time. In addition, the TGI in the experiment with A498 renal was 6.25 µM; in the experiment with BT-549 breast, greater than 100 µM; with NCI-H522 lung, greater than 100 µM; in the experiment with UACC-62 melanoma, greater than 100 µM.

With `CN(C)CCNC(=O)Nc1c(C#N)[n+]([O-])c2cc(Cl)c(Cl)cc2[n+]1[O-]`, the GI50 is 17.4 µM in the experiment with SW-620 colon; 41.4 µM in the experiment with HCT-15 colon; 17.2 µM with SN12C renal; 21.4 µM with OVCAR-3 ovarian; 29.3 µM in the experiment with K-562 leukemia; 37.6 µM with CAKI-1 renal. In addition, the GI50 is 51.6 µM with A498 renal, 10.7 µM with BT-549 breast, 13.1 µM in the experiment on NCI-H522 lung and 10.2 µM in the experiment on UACC-62 melanoma. Also, the TGI in the experiment with SW-620 colon was 69.7 µM; in the experiment on HCT-15 colon, greater than 100 µM; in the experiment with SN12C renal it was greater than 100 µM; in the experiment on OVCAR-3 ovarian, 57 µM; in the experiment on K-562 leukemia, greater than 100 µM; in the experiment on CAKI-1 renal it was greater than 100 µM. Moreover, the TGI was greater than 100 µM in the experiment on A498 renal, 39.8 µM in the experiment with BT-549 breast, 35.3 µM in the experiment on NCI-H522 lung and 66.5 µM in the experiment on UACC-62 melanoma.

`CCCCCCNc1nc(NCCCCCC)c2[nH]c(NCCCCCC)nc2n1`: the GI50 in the experiment on SW-620 colon is 3.04 µM; in the experiment on HCT-15 colon, 10.7 µM; with SN12C renal, 3.75 µM; in the experiment on OVCAR-3 ovarian, 2.1 µM; with K-562 leukemia, 7.02 µM; in the experiment with CAKI-1 renal, 16.2 µM. The GI50 in the experiment with A498 renal is 1.2 µM; with BT-549 breast, 7.47 µM; in the experiment on NCI-H522 lung, 2.14 µM; in the experiment on UACC-62 melanoma it was 13.4 µM. The TGI with SW-620 colon was 12.3 µM; in the experiment with HCT-15 colon it was greater than 51.7 µM; with SN12C renal, 17.6 µM; with OVCAR-3 ovarian, 9.44 µM; in the experiment on K-562 leukemia it was 25.1 µM; in the experiment on CAKI-1 renal, 50.9 µM. Also, the TGI in the experiment on A498 renal was found to be 10.5 µM; in the experiment on BT-549 breast it was 25.1 µM; in the experiment with NCI-H522 lung it was 7.68 µM; in the experiment with UACC-62 melanoma, 28.6 µM.

On to `C=CC(=O)N1CCN(c2ncnc3c(F)c(-c4c(O)cccc4F)c(Cl)cc23)CC1`, for which the GI50 with SW-620 colon is 14 µM; in the experiment with HCT-15 colon, 10 µM; with SN12C renal it was 13.9 µM; in the experiment with OVCAR-3 ovarian, 9.02 µM; with K-562 leukemia, 21.2 µM; in the experiment with CAKI-1 renal it was 12.6 µM. For the same compound, the GI50 is 5.45 µM with A498 renal, 3.87 µM in the experiment on BT-549 breast, 15.6 µM in the experiment with NCI-H522 lung and 9.36 µM with UACC-62 melanoma. The TGI is 31.9 µM in the experiment with SW-620 colon; 27 µM in the experiment with HCT-15 colon; 31.3 µM in the experiment on SN12C renal; 23.5 µM with OVCAR-3 ovarian; greater than 100 µM with K-562 leukemia; 25.8 µM in the experiment with CAKI-1 renal. For the same compound, the TGI in the experiment with A498 renal turned out to be 19.1 µM; in the experiment with BT-549 breast, 17.3 µM; with NCI-H522 lung, 35.1 µM; in the experiment with UACC-62 melanoma, 22.1 µM.

Take `COc1ccc2c(-c3cc4ccccc4o3)cc(=O)oc2c1`: the TGI in the experiment on SW-620 colon is greater than 100 µM; in the experiment on HCT-15 colon, greater than 100 µM; in the experiment on SN12C renal it was greater than 100 µM; with OVCAR-3 ovarian, 30.4 µM; with K-562 leukemia it was greater than 100 µM; in the experiment on CAKI-1 renal, greater than 87.4 µM. The TGI in the experiment with A498 renal was greater than 92 µM; in the experiment with BT-549 breast, greater than 100 µM; in the experiment with NCI-H522 lung it was greater than 91.8 µM; with UACC-62 melanoma it was greater than 100 µM.

As for `COc1cc2c3c(n(CCCN4CCC(N)CC4)c(=O)c2cc1OC)-c1cc2c(cc1C3=O)OCO2`, the GI50 was 0.447 µM in the experiment on SW-620 colon; 1.01 µM in the experiment with HCT-15 colon; 0.338 µM with SN12C renal; 0.765 µM in the experiment with OVCAR-3 ovarian; 0.587 µM with K-562 leukemia; 0.311 µM with CAKI-1 renal. The GI50 was 3.03 µM with A498 renal, 2.41 µM in the experiment with BT-549 breast, 3.4 µM in the experiment on NCI-H522 lung and 1.33 µM with UACC-62 melanoma. For the same compound, the TGI is 1.43 µM in the experiment on SW-620 colon; 6.01 µM in the experiment with HCT-15 colon; 1.08 µM with SN12C renal; 1.9 µM in the experiment on OVCAR-3 ovarian; 6.91 µM in the experiment on K-562 leukemia; 2.99 µM in the experiment on CAKI-1 renal. Also, the TGI with A498 renal came to 10.8 µM; in the experiment with BT-549 breast, 9.84 µM; in the experiment with NCI-H522 lung, 21.7 µM; with UACC-62 melanoma, 6.34 µM.

Consider `Cc1c(-c2nc(N)nc(C3CC3)c2C)nc(N)nc1C1CC1`, for which the TGI with SW-620 colon, with HCT-15 colon, in the experiment with SN12C renal, in the experiment with OVCAR-3 ovarian, in the experiment on K-562 leukemia and with CAKI-1 renal was greater than 100 µM in each case. Besides, the TGI with A498 renal, with BT-549 breast, in the experiment with NCI-H522 lung and in the experiment on UACC-62 melanoma was greater than 100 µM throughout.
